We go through 13 compounds from ChEMBL document CHEMBL1201862, “PubChem BioAssay data set” (2004).

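1) Cells in 96-well plates. 2) Compound, 48 h, 5 concentrations. 3) Linear interpolation between surrounding doses. 4) Unreached endpoint = highest concentration. Here, GI50 denotes the concentration required for 50% inhibition of growth.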 Active and inactive are the calls of the source. Cut-off read from the data, not from the text of the source: active = GI50 up to about 1.1 µM and inactive = higher.

Test systems include SK-MEL-5; 786-0; OVCAR-3; UO-31; RPMI-8226; NCI-H23; UACC-62; NCI-H522; HOP-92; A549; SW-620; EKVX; TK-10; NCI-H226; COLO 205; OVCAR-4; ACHN.
Common to all, as to experiment: NCI anticancer screen, dose series, 48 h

Turning to `C/C(CC(=O)Nc1cccc([N+](=O)[O-])c1)=N\NC(=O)CC#N`, the GI50 in the test with SK-MEL-5, in the test on 786-0, in the test on OVCAR-3, in the test on UO-31, in the test on RPMI-8226 and in the test with NCI-H23 was > 100 µM (inactive) throughout. For the same compound, the GI50 is > 100 µM (inactive) in the test on UACC-62; 99.1 µM (inactive) in the test on NCI-H522; > 100 µM (inactive) with HOP-92; > 100 µM (inactive) in the test on A549; > 100 µM (inactive) in the test on SW-620; > 100 µM (inactive) with EKVX. Moreover, the GI50 with TK-10, with NCI-H226 and in the test on COLO 205 was > 100 µM (inactive) in each case.

With `O=C1CCCCCCCCCCC1CN1CCCCC1` (centres undefined), the GI50 in the test with SK-MEL-5 was 15 µM (inactive); with 786-0, > 100 µM (inactive); with OVCAR-3, > 100 µM (inactive); in the test on UO-31, 39 µM (inactive); with RPMI-8226, > 100 µM (inactive); with OVCAR-4, > 100 µM (inactive). Further, the GI50 was 26.9 µM (inactive) in the test with NCI-H23; 88.9 µM (inactive) with UACC-62; > 100 µM (inactive) with ACHN; > 100 µM (inactive) in the test on NCI-H522; > 100 µM (inactive) in the test with A549; > 100 µM (inactive) in the test on SW-620. Further, the GI50 with EKVX is > 100 µM (inactive); in the test with TK-10, 38.4 µM (inactive); in the test with NCI-H226, 28.2 µM (inactive); in the test with COLO 205, 41.4 µM (inactive).

Consider `COC1(OC)CC2C(=O)N(Cc3ccccc3)C1C(S(=O)(=O)c1ccccc1)C2C(C)S(=O)(=O)c1ccccc1` (centres undefined), for which the GI50 in the test on SK-MEL-5, with 786-0, in the test on OVCAR-3, with RPMI-8226, in the test with OVCAR-4 and with NCI-H23 was > 100 µM (inactive) throughout. The GI50 was > 100 µM (inactive) in the test with UACC-62; > 100 µM (inactive) in the test with ACHN; > 100 µM (inactive) with NCI-H522; 17 µM (inactive) with HOP-92; > 100 µM (inactive) in the test with A549; > 100 µM (inactive) in the test with SW-620. In addition, the GI50 was 85.5 µM (inactive) in the test with EKVX, > 100 µM (inactive) with TK-10 and > 100 µM (inactive) with COLO 205.

With `CC(=O)Oc1cc(Cl)c(OC(C)=O)c2c(OC(C)=O)c(C)c(O[Si](C)(C)C(C)(C)C)cc12`, the GI50 is 4.41 µM (inactive) in the test on SK-MEL-5; 14.9 µM (inactive) in the test on 786-0; 15.6 µM (inactive) in the test on OVCAR-3; 13.5 µM (inactive) in the test with UO-31; 2.93 µM (inactive) in the test on RPMI-8226; 13.2 µM (inactive) in the test with OVCAR-4. The GI50 was 4.18 µM (inactive) in the test with NCI-H23; 5.07 µM (inactive) in the test with NCI-H522; 7.52 µM (inactive) in the test with HOP-92; 5.3 µM (inactive) in the test on A549; 2.8 µM (inactive) in the test on SW-620; 18.7 µM (inactive) with EKVX. Further, the GI50 is 5.31 µM (inactive) with TK-10 and 15.1 µM (inactive) in the test with COLO 205.

On to `Cc1ccccc1NC(=O)C1C(=O)N(c2ccccc2C)C(=O)/C1=N\NC(N)=S` (centres undefined), for which the GI50 in the test with 786-0, with OVCAR-3, with UO-31, with RPMI-8226, with NCI-H23 and in the test with UACC-62 was > 100 µM (inactive) throughout. The GI50 in the test on ACHN, with NCI-H522, with HOP-92, in the test on A549, with SW-620 and in the test on EKVX was > 100 µM (inactive) throughout. Further, the GI50 with TK-10 and with NCI-H226 was > 100 µM (inactive) each time.

Take `C/C(=N/Nc1ccc([N+](=O)[O-])cc1[N+](=O)[O-])C(CC(C(=O)NCc1ccccc1)/C(C)=N\Nc1ccc([N+](=O)[O-])cc1[N+](=O)[O-])C(=O)NCc1ccccc1` (centres undefined): the GI50 was 3.24 µM (inactive) with 786-0; 11.3 µM (inactive) in the test with OVCAR-3; 2.39 µM (inactive) in the test on UO-31; 14.7 µM (inactive) in the test with RPMI-8226; 2.4 µM (inactive) in the test with OVCAR-4; 13.3 µM (inactive) with NCI-H23. Moreover, the GI50 was 11.7 µM (inactive) in the test with UACC-62; 5.46 µM (inactive) with ACHN; < 0.01 µM (active) in the test on NCI-H522; 2.88 µM (inactive) in the test on HOP-92; 4.4 µM (inactive) in the test on A549; 10.8 µM (inactive) in the test on SW-620. Besides, the figures for the GI50 with EKVX, in the test with NCI-H226 and with COLO 205 were 12.7 µM (inactive), 11.2 µM (inactive) and 13.5 µM (inactive), respectively.

For the compound `Clc1ccc(Cl)c2[s+]snc12`, the GI50 in the test with SK-MEL-5 was 76 µM (inactive); with 786-0, > 40.9 µM (inactive); with OVCAR-3, > 63.5 µM (inactive); with UO-31, > 100 µM (inactive); with RPMI-8226, > 48.6 µM (inactive); in the test with OVCAR-4, > 100 µM (inactive). Further, the GI50 in the test with NCI-H23 is > 100 µM (inactive); in the test with UACC-62, 43.4 µM (inactive); in the test on ACHN it was > 79.1 µM (inactive); with NCI-H522, 18.1 µM (inactive); in the test with HOP-92, > 60.7 µM (inactive); in the test with A549 it was > 100 µM (inactive). Besides, the GI50 in the test on SW-620 is 23.6 µM (inactive); in the test on EKVX, > 100 µM (inactive); in the test with TK-10 it was > 100 µM (inactive); in the test with NCI-H226 it was > 100 µM (inactive); with COLO 205, > 43.1 µM (inactive).

On to `CC(=O)c1c2c(cc3c1CC1(C3)Cc3cc4c(c(C(=O)O)c3C1)CCC4)CCC2` (centres undefined), for which the GI50 with SK-MEL-5 is 35.7 µM (inactive); in the test with 786-0, 47.2 µM (inactive); in the test on OVCAR-3, 19.7 µM (inactive); with UO-31, 26.9 µM (inactive); in the test on OVCAR-4, 49.1 µM (inactive); with NCI-H23 it was 26.2 µM (inactive). The GI50 in the test with UACC-62 was 28.6 µM (inactive); in the test with ACHN it was 35.9 µM (inactive); in the test with NCI-H522 it was 15.9 µM (inactive); with HOP-92, 33.2 µM (inactive); with A549 it was 30.8 µM (inactive); with SW-620 it was 48.6 µM (inactive). Further, the GI50 was 42.3 µM (inactive) in the test with TK-10 and 24.7 µM (inactive) in the test on COLO 205.

Consider `Cc1cc(O)c(C(=O)O)c2c1C(=O)c1c(O)c(OCC(O)C(O)C(O)C(O)CO)c(O)c(O)c1C2=O.NCCNCCO` (centres undefined), for which the GI50 with SK-MEL-5, in the test on 786-0, in the test on OVCAR-3, in the test on UO-31, in the test on RPMI-8226 and in the test on OVCAR-4 was > 100 µM (inactive) each time. Also, the GI50 with NCI-H23, in the test with UACC-62, in the test with NCI-H522, with HOP-92, with A549 and in the test on SW-620 was > 100 µM (inactive) throughout. For the same compound, the GI50 with EKVX, in the test with TK-10, in the test on NCI-H226 and with COLO 205 was > 100 µM (inactive) each time.

As to `CN(C)C(=N)NC(=S)N(C)C`, the GI50 in the test on SK-MEL-5, in the test on 786-0, with UO-31, in the test with RPMI-8226, in the test with OVCAR-4 and with NCI-H23 was > 100 µM (inactive) in each case. The GI50 with UACC-62, in the test on ACHN, in the test on NCI-H522, in the test on HOP-92, with A549 and in the test with SW-620 was > 100 µM (inactive) each time. In addition, the results for the GI50 in the test on EKVX, in the test on TK-10 and with NCI-H226 were > 100 µM (inactive), > 100 µM (inactive) and 17.2 µM (inactive), respectively.

For `N#COc1ccc(Oc2ccc(OC#N)cc2)cc1`, the GI50 with SK-MEL-5 was > 100 µM (inactive); in the test on 786-0, 39.1 µM (inactive); with OVCAR-3, > 100 µM (inactive); with UO-31 it was 89.7 µM (inactive); in the test on RPMI-8226, 32 µM (inactive); with OVCAR-4 it was > 100 µM (inactive). Further, the GI50 in the test on NCI-H23 is 70.5 µM (inactive); in the test on UACC-62, 47.1 µM (inactive); with ACHN, 35.5 µM (inactive); in the test on NCI-H522 it was 43.4 µM (inactive); with HOP-92, > 100 µM (inactive); in the test on A549 it was > 100 µM (inactive). For the same compound, the GI50 was > 100 µM (inactive) in the test on EKVX, > 100 µM (inactive) in the test with TK-10, > 100 µM (inactive) in the test with NCI-H226 and 22.4 µM (inactive) with COLO 205.

Take `Nc1cc[nH]c(=O)n1`: the GI50 with SK-MEL-5, in the test with 786-0, in the test with OVCAR-3, in the test on UO-31, in the test with RPMI-8226 and in the test with OVCAR-4 was > 100 µM (inactive) throughout. The GI50 in the test on UACC-62, in the test with ACHN, in the test with NCI-H522, in the test with HOP-92, in the test on A549 and in the test on SW-620 was > 100 µM (inactive) in each case. Besides, the GI50 with EKVX, with TK-10, with NCI-H226 and in the test on COLO 205 was > 100 µM (inactive) throughout.

On to `COc1cccc(OC)c1C(=O)OCc1ccccc1`, for which the GI50 in the test with SK-MEL-5, with 786-0, in the test with OVCAR-3, with RPMI-8226, in the test on OVCAR-4 and in the test with NCI-H23 was > 100 µM (inactive) in each case. The GI50 with UACC-62, in the test with ACHN, in the test on NCI-H522, with HOP-92, in the test on A549 and in the test on SW-620 was > 100 µM (inactive) throughout. Besides, the GI50 with EKVX, with TK-10, with NCI-H226 and in the test with COLO 205 was > 100 µM (inactive) each time.
